The values below come from PubChem BioAssay AID1996.

Usually kinetic solubility stands for solubility judged after dilution from a stock solution rather than from solid.

Values after ≈ are worked out from the molar mass of the structure shown.

For this data set the following is noted: buffer; pH 7.4; 200.0 µM.
The compound `COc1ccc(C(=O)N2CCC3(CC2)OCCO3)cc1` had a solubility (kinetic) of more than 41.6 µg/mL. In the case of `Nc1cc(C(=O)OCC(=O)N2CCOCC2)ccc1Cl`, the kinetic solubility is more than 44.8 µg/mL. Compound `CCN1CCN(C(=O)NC2CC(=O)N(c3ccc(OC)cc3)C2)CC1` (centres undefined) registered a solubility (kinetic) of more than 52 µg/mL. The result for `CC(C)(C)NC(=O)C1c2ccccc2Oc2ccccc21` reads 1.7 µg/mL (≈ 6.04 µM). With `CCOc1ccccc1NC(=S)NC(=O)c1ccco1` the figure was 1.9 µg/mL (≈ 6.54 µM); with `O=C(CSc1ncccn1)NC(=O)NCc1ccco1`, 40.8 µg/mL (≈ 140 µM); with `COc1ccc(C(=O)Nc2ccc(CN3CCCCC3)cc2)cc1`, more than 48.7 µg/mL. With `Cc1ccc(C(=O)Oc2ccc(N3C(=O)CCC3=O)c(C)c2)cc1` the figure was less than 0.7 µg/mL; with `COC(=O)c1sc(NC(=O)/C=C/c2ccccc2Cl)nc1C`, 1.5 µg/mL (≈ 4.45 µM). `Cc1ccc(C(C)C)c(OCCCCCN2CCOCC2)c1` gave a kinetic solubility of 12.8 µg/mL (≈ 41.9 µM). With `NC(CO)(CO)CO.O=C(c1ccccc1)c1ccc2n1CCC2C(=O)O` (centres undefined) the figure was more than 56.5 µg/mL; with `CCc1ccc(NC(=O)CCc2ccc(C)o2)cc1`, 5.3 µg/mL (≈ 20.6 µM).

Compound `CC1CCCC(NC(=O)COC(=O)c2ccc3c(c2)OCCO3)C1C` (centres undefined) registered a kinetic solubility of 5.3 µg/mL (≈ 15.3 µM). Turning to `C=CCNC(=O)C(=O)Nc1cc2c3c(c1)CCC(=O)N3CCC2`, the solubility (kinetic) is more than 47 µg/mL. The result for `COC1c2ccccc2C(=O)N1Cc1ccc(F)cc1` (centres undefined) reads 37.4 µg/mL (≈ 138 µM); that for `COc1ccc(/C=C(/NC(=O)c2ccccc2)C(=O)N2CCCC2)cc1`, more than 52.6 µg/mL; that for `Cc1c(C(=O)OCC(=O)N2CCCC2)cccc1[N+](=O)[O-]`, more than 43.8 µg/mL.

`O=C(Nc1ccc(CSc2ccccc2)cc1)c1ccco1`: the solubility (kinetic) was less than 0.7 µg/mL.

For the compound `O=[N+]([O-])c1ccc(Nc2nc(Cl)nc(NCCO)n2)cc1`, the solubility (kinetic) is 2.6 µg/mL (≈ 8.37 µM). With `C[N+]1(C)C2CCC1CC(OC(=O)c1ccco1)C2.[Br-]` (centres undefined) the figure was 48.5 µg/mL. `CCC1OC(c2ccc([N+](=O)[O-])cc2)=Nc2ccccc21` (centres undefined) registered a solubility (kinetic) of 3.1 µg/mL (≈ 11 µM).

With `COC(=O)c1ccccc1NS(=O)(=O)c1c(C)noc1C`, the kinetic solubility was more than 46.5 µg/mL. The result for `CCn1cc([N+](=O)[O-])c(=O)c2cc(F)c(N3CCOCC3)cc21` reads 13.5 µg/mL (≈ 42 µM). In turn, `CN(C)S(=O)(=O)c1cccc(NC(=O)c2c[nH]c3ccccc23)c1` registered a solubility (kinetic) of 42.6 µg/mL (≈ 124 µM). The result for `O=C(C1CCCC1)N1CCN(S(=O)(=O)c2cccc(Cl)c2Cl)CC1` reads 27.4 µg/mL (≈ 70 µM); that for `O=C(NCCC(=O)N1CCN(c2ccccn2)CC1)c1ccc(Cl)cc1`, more than 55.9 µg/mL. With `CC(NS(=O)(=O)c1ccccc1)C1CC2CCC1C2` (centres undefined) the figure was 6 µg/mL (≈ 21.5 µM); with `Cc1cc(C)c(NC(=O)C(=O)NCc2ccco2)c(C)c1`, 4.1 µg/mL (≈ 14.3 µM). `CC1(c2ccccc2)NC(=O)N(CC(=O)Nc2ccccc2C(=O)NC2CC2)C1=O` (centres undefined) showed a kinetic solubility of more than 61 µg/mL. The result for `N#Cc1ccc(OC(=O)Cc2ccsc2)cc1` reads 35.5 µg/mL (≈ 146 µM). The result for `O=C(O)c1cccc2c1C(=O)N(C1CCCC1)C2` reads 34 µg/mL (≈ 139 µM); that for `COc1ccc(OC)c(NC(=O)C2CC2c2ccccc2)c1` (centres undefined), 18 µg/mL (≈ 60.5 µM); that for `CCn1c([N+](=O)[O-])nc2c1c(=O)[nH]c(=O)n2C`, more than 35.9 µg/mL. Compound `N#Cc1c(N2CCNCC2)nc(-c2ccco2)c2c1CCCC2` returned a solubility (kinetic) of more than 46.3 µg/mL.

On to `Cc1ccc(SCc2cn3ccccc3n2)cc1`, for which the solubility (kinetic) came to 37 µg/mL (≈ 145 µM). The result for `C=CCn1c(O)c(/C(C)=N/N2CCCCCC2)c(=O)[nH]c1=O` reads more than 46 µg/mL.

Regarding `Cc1c2ccccc2nc2ccccc12`, the kinetic solubility came to 7.9 µg/mL (≈ 40.9 µM). For the compound `O=C(NCc1ccc(F)cc1)C(Cc1ccccc1)n1cccc1` (centres undefined), the kinetic solubility worked out at 32.2 µg/mL (≈ 99.9 µM).

`CCN1CCN(C(=O)CN2C(=O)COc3ccc(C)cc32)CC1` registered a solubility (kinetic) of more than 47.6 µg/mL. With `Cc1ccccc1OCC(=O)NCCCNC(=O)c1ccco1` the figure was 43.9 µg/mL (≈ 139 µM); with `CN(C)C1(CN=Cc2cc(Cl)cc([N+](=O)[O-])c2O)CCCCC1`, more than 51 µg/mL; with `COc1cccc(N=C(N)N=C(N)N)c1`, 25.6 µg/mL (≈ 124 µM). Consider `CC(C(=O)OCC(=O)NC1CCCC1)N1C(=O)c2ccccc2C1=O` (centres undefined), for which the kinetic solubility was 50 µg/mL (≈ 145 µM). Consider `CN(C)C(CNS(=O)(=O)c1cc([N+](=O)[O-])ccc1Cl)c1ccco1.Cl` (centres undefined), for which the kinetic solubility stood at 20.6 µg/mL. With `COc1nccc(C(F)(F)F)c1C(=O)Nc1ccc(Cl)cc1` the figure was 1.6 µg/mL (≈ 4.84 µM); with `COCCn1c(SCC(=O)NC(=O)NC2CCCCC2)nc2ccccc2c1=O`, 4.6 µg/mL (≈ 11 µM). Turning to `O=C(COC(=O)/C=C/c1ccco1)NC1CCCCC1`, the solubility (kinetic) came out at 16.3 µg/mL (≈ 58.8 µM). Against the preceding compound, the solubility kinetic is about 3.5-fold higher. The result for `CSc1nccc(-c2c(-c3ccc(Cl)cc3)noc2C)n1` reads 4.6 µg/mL (≈ 14.5 µM); that for `CCc1ccccc1NC(=O)CC(=O)Nc1ccccc1CC`, more than 46.6 µg/mL; that for `Cc1cc(C)cc(NC(=O)COC(=O)CC2CCCC2)c1`, 21.1 µg/mL (≈ 72.9 µM).

In turn, `O=C(CN1C(=O)c2ccccc2S1(=O)=O)NC1CCCCC1` returned a kinetic solubility of more than 48.4 µg/mL. With `CNc1nc(-c2cccs2)cc(C(F)(F)F)c1C#N` the figure was less than 0.2 µg/mL; with `CN(C)c1cc(-c2ccc(C#N)cc2)oc(=O)c1Cl`, 2.7 µg/mL (≈ 9.83 µM). Consider `COc1ccc(CCNCc2cccn2C)cc1.Cl`, for which the kinetic solubility was 40.5 µg/mL. The result for `O=C(Nc1ccccc1)c1cccc2c(Br)cccc12` reads less than 0.7 µg/mL. The result for `S=C(c1ccc(Br)cc1)N1CCCC1` reads more than 40.5 µg/mL; that for `O=C(NCc1ccc(Cl)cc1)C1CCCO1` (centres undefined), more than 36 µg/mL. With `CSc1ncccc1C(=O)OCC(=O)Nc1ccc(C)c(S(=O)(=O)N2CCOCC2)c1` the figure was 21 µg/mL (≈ 45.1 µM); with `O=C(Nc1ccc(Cl)cc1)c1ccco1`, 30.8 µg/mL (≈ 139 µM).

In turn, `CSc1ccc(S(=O)(=O)NCCCn2ccnc2)cc1` displayed a kinetic solubility of more than 46.7 µg/mL. With `COc1ccc(C(=O)CCN2CCC(C)CC2)cc1.Cl` the figure was more than 44.7 µg/mL; with `Cc1cc(C)c(NC(=O)Nc2ccccc2)c(C)n1`, 34.3 µg/mL (≈ 134 µM); with `O=C(Cc1ccc(Cl)c(Cl)c1)NC1CCCCCC1`, 3.2 µg/mL (≈ 10.7 µM).

For the compound `O=C(COC(=O)c1ccccc1Br)NC1CCCCCCC1`, the kinetic solubility turned out to be 25.1 µg/mL (≈ 68.2 µM). With `Cc1ccc(C(=O)NC2CC3CCC(C2)N3C)cc1` (centres undefined) the figure was more than 38.8 µg/mL; with `CCc1sc(C(=O)Nc2ccc3nc(C)sc3c2)cc1C`, 1.6 µg/mL (≈ 5.06 µM). With `CC(C)(C)C(=O)Nc1ccc(S(=O)(=O)N2CCCC2)cc1` the figure was more than 46.6 µg/mL. With `O=C(COC(=O)CNC(=O)C1CCCCC1)Nc1ccccc1OC(F)F` the figure was more than 57.7 µg/mL; with `Cc1ccccc1NC(=O)c1cc[n+]([O-])cc1`, more than 34.2 µg/mL.

`COc1ccc(S(=O)(=O)NC2CCc3ccccc32)cc1OC` (centres undefined): the kinetic solubility was more than 50 µg/mL. The result for `CC1CN(S(=O)(=O)c2cc(C(=O)NC(C)c3cccnc3)ccc2Cl)CC(C)O1` (centres undefined) reads more than 65.7 µg/mL; that for `O=[N+]([O-])/C=C/c1ccc2c(ccn2Cc2ccccc2)c1`, 0.6 µg/mL (≈ 2.16 µM). For the compound `CC(=O)OC(C)C[N+](C)(C)C.[Cl-]` (centres undefined), the kinetic solubility was more than 29.4 µg/mL.

Turning to `Cc1noc(C(=O)Nc2ccc(F)c(Cl)c2)c1Cl`, the kinetic solubility came to 1.4 µg/mL (≈ 4.84 µM). `O=C(NCCCN1CCOCC1)c1ccc2ccccc2c1` gave a kinetic solubility of more than 44.8 µg/mL.

Take `CC(C)[C@H](NS(=O)(=O)c1ccccc1)C(=O)OCC(=O)NCc1ccc2c(c1)OCO2`: the kinetic solubility was more than 67.3 µg/mL. The result for `Cc1cc(OCC(=O)NCCc2c[nH]c3ccccc23)c2c(C)cc(=O)oc2c1` reads less than 0.4 µg/mL. For the compound `COc1ccc2[nH]cc(CCNC(=O)c3ccc4ccccc4n3)c2c1`, the kinetic solubility is 1.6 µg/mL (≈ 4.63 µM). With `O=c1cc(COc2ccccc2[N+](=O)[O-])nc2sccn12` the figure was 2.7 µg/mL (≈ 8.9 µM).

`N#Cc1cnc(NCc2ccc(Cl)cc2Cl)nc1` gave a solubility (kinetic) of 0.5 µg/mL (≈ 1.79 µM). With `CCOC(=O)C1CCN(C(C)C(=O)c2c[nH]c3ccccc23)CC1` (centres undefined) the figure was more than 49.3 µg/mL; with `CCCCn1c(N)c(N(CCC(C)C)C(=O)COC(=O)/C=C/c2ccc(F)cc2)c(=O)[nH]c1=O`, 8.5 µg/mL (≈ 17.9 µM); with `Cc1cc(Cl)n2c(nc3cc(F)c(F)cc32)c1C#N`, 4.7 µg/mL (≈ 16.9 µM).

In the case of `O=C(O)c1nc(NCc2ccccc2)ncc1Cl`, the solubility (kinetic) is more than 39.6 µg/mL. `c1csc(-c2nc(CN3CCSCC3)cs2)c1` yielded a solubility (kinetic) of 32.8 µg/mL (≈ 116 µM). As for `COc1cccc(/C=C/C(=O)OCC(=O)NC2CC2)c1`, the solubility (kinetic) was more than 41.3 µg/mL.

The compound `O=C(NCCCO)C(=O)Nc1cc2c3c(c1)CCN3C(=O)CC2` came in with a solubility (kinetic) of more than 47.6 µg/mL. The result for `Cc1ccc(C(=O)Nc2ccc(S(=O)(=O)N3CCOCC3)cc2)cc1Br` reads 0.5 µg/mL (≈ 1.14 µM); that for `CCc1cc2ccccc2nc1SCC(=O)NC1CCCC1`, 0.3 µg/mL (≈ 0.954 µM); that for `O=C(CCCOc1ccccc1)NCCc1nc2ccccc2[nH]1`, more than 48.5 µg/mL. The result for `Oc1ccc2ccccc2c1CNc1ccc(Br)cc1` reads 5.5 µg/mL (≈ 16.8 µM). The result for `O=C(/C=C/c1cc(Br)ccc1F)Nc1cccnc1` reads 2 µg/mL (≈ 6.23 µM); that for `Cc1nc([N+](=O)[O-])cn1CC(O)c1ccc(Cl)cc1` (centres undefined), more than 42.3 µg/mL; that for `COc1ccc(NC(=O)Nc2ccc3c(c2)CCC3)c(OC)c1`, less than 0.3 µg/mL. As to `CCCC(=O)Nc1nc(C)c(C(C)=O)s1`, the kinetic solubility is more than 33.9 µg/mL. Consider `COc1ccc(C)cc1CN1C(=O)c2ccccc2C1=O`, for which the solubility (kinetic) was determined as 4 µg/mL (≈ 14.2 µM).

The compound `CSc1ncccc1C(=O)NCc1ccccc1Cl` yielded a kinetic solubility of 38.1 µg/mL (≈ 130 µM). This solubility kinetic lies about 9.5-fold higher than the previous one. With `COc1cccc(NC(=O)CN2CCSc3ccccc32)c1` the figure was 25.5 µg/mL (≈ 81.1 µM); with `COc1ccc(NCC(=O)Nc2cccc(S(=O)(=O)N3CCCC3)c2)cc1Cl`, 13.6 µg/mL (≈ 32.1 µM). With `CCn1c(SCc2ccc(OC)c(F)c2)nc2ccccc2c1=O` the figure was less than 0.4 µg/mL; with `N#Cc1c(-c2ccccc2)cc(-c2ccccc2)nc1SCC(=O)O`, more than 52 µg/mL. The result for `CCOc1ccccc1Oc1nc(-c2ccccc2O)nc2ccccc12` reads 0.6 µg/mL (≈ 1.67 µM). In turn, `Cc1cc(/C=C(\C#N)C(=O)O)c(C)n1CC1CCCO1` (centres undefined) showed a kinetic solubility of more than 41.1 µg/mL. With `CC12CC3CC(C)(C1)CC(C(=O)NCc1cccnc1)(C3)C2` the figure was more than 44.8 µg/mL.
